Consider five compounds from article PMC9265530, “The Three Two-Pore Channel Subtypes from Rabbit Exhibit Distinct Sensitivity to Phosphoinositides, Voltage, and Extracytosolic pH” (Cells, 2022).

Experiment [1] has as its target T1, OcTPC3 (Oryctolagus cuniculus, UniProt B8Q2W0).
T1 construct: gene TPCN3; C-terminal EGFP fusion (pEGFP-N1), transient in HEK293; previously cloned cDNA; dimer
T1 sequence (B8Q2W0 1-766): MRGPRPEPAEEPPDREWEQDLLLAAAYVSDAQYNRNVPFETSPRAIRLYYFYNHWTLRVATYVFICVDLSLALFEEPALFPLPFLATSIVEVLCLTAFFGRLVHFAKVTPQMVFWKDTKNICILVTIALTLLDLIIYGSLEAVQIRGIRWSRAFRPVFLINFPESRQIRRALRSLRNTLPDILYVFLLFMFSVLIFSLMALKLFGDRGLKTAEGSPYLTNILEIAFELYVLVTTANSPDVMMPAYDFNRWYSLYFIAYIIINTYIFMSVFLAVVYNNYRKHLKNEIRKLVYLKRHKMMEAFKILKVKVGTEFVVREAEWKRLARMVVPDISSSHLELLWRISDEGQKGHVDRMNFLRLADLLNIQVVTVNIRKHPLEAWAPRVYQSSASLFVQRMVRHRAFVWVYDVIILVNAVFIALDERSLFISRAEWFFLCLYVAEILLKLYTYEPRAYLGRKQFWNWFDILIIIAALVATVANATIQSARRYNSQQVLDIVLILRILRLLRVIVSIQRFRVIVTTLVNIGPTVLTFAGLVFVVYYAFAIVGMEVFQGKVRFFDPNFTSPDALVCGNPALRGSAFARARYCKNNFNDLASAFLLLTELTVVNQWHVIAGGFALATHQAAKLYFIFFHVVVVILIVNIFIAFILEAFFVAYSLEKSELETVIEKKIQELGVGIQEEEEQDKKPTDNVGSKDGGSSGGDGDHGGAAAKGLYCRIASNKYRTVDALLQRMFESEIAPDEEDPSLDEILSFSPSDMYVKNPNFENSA
Briefly: inside-out patch clamp, tail current at […] mV after +[…] mV step. To be noted: agonist; relative to 1 µM PI(3,5)P2; 4-s step to +100 mV; pH 7.2. The experiment is classed as biochemical. In general terms: The patch-clamp technique gives a direct electrical read-out from membranes.

The target in experiment [2] is T2, OcTPC2 (Oryctolagus cuniculus, UniProt Z9ZIB8IF81).
T2 construct: full-length, C-terminal EGFP fusion (pEGFP-N1), transient in HEK293; cloned from rabbit kidney RNA; 749/753 residues match GBCT01193833.1; dimer
Kind of experiment: whole-endolysosome patch clamp, current at -100 mV. The class given is biochemical. Conditions: inhibitor; against 100 nM PI(3,5)P2; voltage ramps.

The target of experiment [3] is T1, OcTPC3. Kind of experiment: inside-out patch clamp, tail current at […] mV after +[…] mV step. The experiment is classed as cell-based.
The target in experiment [4] is T2, OcTPC2. Briefly: whole-endolysosome patch clamp, current at -100 mV. Conditions: agonist; voltage ramps; vacuolin-1 enlarged vacuoles; cytoplasmic pH 7.2; room temperature; HEK293. The experiment is classed as cell-based.
The subject of another experiment is T3, OcTPC1.
T3 construct: gene TPCN1; full-length, C-terminal EGFP fusion (pEGFP-N1), transient in HEK293; cloned from rabbit kidney RNA; 815/817 residues match XM_017349553.1; dimer
Briefly: inside-out patch clamp, current at -100 mV. The experiment is classed as cell-based, Oryctolagus cuniculus. To be noted: agonist; voltage ramps; cytoplasmic pH 7.2; room temperature; HEK293.

Consider `CCCCCCCC(=O)OC[C@H](COP(=O)(O)O[C@@H]1[C@H](O)[C@H](OP(=O)(O)O)[C@@H](O)[C@H](O)[C@H]1O)OC(=O)CCCCCCC` [PI3P], for which the “% of PI(3,5)P2 response at 1 μM” value at OcTPC3 [1] amounted to 93.8 ± 5.1%.

`CCCCCCCC(=O)OC[C@H](COP(=O)(O)O[C@H]1[C@H](O)[C@@H](O)[C@H](OP(=O)(O)O)[C@@H](OP(=O)(O)O)[C@H]1O)OC(=O)CCCCCCC` [PI(3,4)P2]: at OcTPC3 [1], the “% of PI(3,5)P2 response at 1 μM” value stood at 29.9 ± 5.2%. Still for that read-out and setting: next, `CCCCCCCC(=O)OC[C@H](COP(=O)(O)O[C@H]1[C@H](O)[C@@H](OP(=O)(O)O)[C@H](OP(=O)(O)O)[C@@H](OP(=O)(O)O)[C@H]1O)OC(=O)CCCCCCC` [PI(3,4,5)P3]: 7.0 ± 2.0%.

As a reminder, the % inhibition is the relative decrease from the control value, in per cent. Regarding `CCCCCCCC(=O)OC[C@H](COP(=O)(O)O[C@@H]1[C@H](O)[C@H](O)[C@@H](OP(=O)(O)O)[C@H](OP(=O)(O)O)[C@H]1O)OC(=O)CCCCCCC` [PI(4,5)P2], on OcTPC3 [1], the “% of PI(3,5)P2 response at 1 μM” value is 9.0 ± 2.0%. Besides, the “% inhibition at 1 μM” value at OcTPC2 [2] is recorded as 67.6 ± 5.3%. As a reminder, the EC50 is the concentration needed to bring the measured effect to its halfway point. Take `CCCCCCCC(=O)OC[C@H](COP(=O)(O)O[C@@H]1[C@H](O)[C@H](OP(=O)(O)O)[C@@H](O)[C@H](OP(=O)(O)O)[C@H]1O)OC(=O)CCCCCCC` [diC8 PI(3,5)P2]: the EC50 amounted to 142 ± 0.2 nM at OcTPC3 [3], 208 ± 8.1 nM at OcTPC2 [4] and 26.3 ± 5 nM in the experiment on OcTPC1.
